Test results reported in ChEMBL document CHEMBL1201862, “PubChem BioAssay data set” (2004).
The source made the active and inactive calls.

Tests used:
Beta-galactosidase = Beta-galactosidase (Escherichia coli, UniProt Q8VNN2); assay: Dose response counterscreen for EBI2 assay utilizing the enzyme, b-galactosidase.; format: functional
[1] = HIV-1 Vif–A3G interaction blockers – biochemical, TR-FRET, GST-Vif 1-94, biotin-A3G peptide, dose response retest, primary screen (AID 1117319); format: functional;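 further: TR-FRET signal of purified GST-Vif binding a biotinylated A3G peptide; inhibitors lower the FRET signal by blocking Vif and A3G binding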
[2] = target: T1, Corticotropin-releasing factor receptor 2/Corticotropin-releasing factor-binding protein (Homo sapiens, UniProt P24387+Q13324); assay: activators of CRF receptor 2 with binding protein – uHTS hits, confirmation (AID 602473); format: functional; details: read-out: EC50_Mean
T1 sequence (Q13324 whole entry): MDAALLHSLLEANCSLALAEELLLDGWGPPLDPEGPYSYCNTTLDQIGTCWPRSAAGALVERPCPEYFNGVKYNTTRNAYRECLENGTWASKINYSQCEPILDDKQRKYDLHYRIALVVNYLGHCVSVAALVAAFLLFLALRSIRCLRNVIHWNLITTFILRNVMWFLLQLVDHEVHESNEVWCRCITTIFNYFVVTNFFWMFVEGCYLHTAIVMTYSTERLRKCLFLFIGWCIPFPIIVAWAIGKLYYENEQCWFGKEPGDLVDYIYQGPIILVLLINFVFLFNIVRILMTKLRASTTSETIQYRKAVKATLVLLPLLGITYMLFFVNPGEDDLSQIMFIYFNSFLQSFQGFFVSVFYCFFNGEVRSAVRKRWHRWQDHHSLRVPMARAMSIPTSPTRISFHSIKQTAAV
T1 sequence (P24387 whole entry): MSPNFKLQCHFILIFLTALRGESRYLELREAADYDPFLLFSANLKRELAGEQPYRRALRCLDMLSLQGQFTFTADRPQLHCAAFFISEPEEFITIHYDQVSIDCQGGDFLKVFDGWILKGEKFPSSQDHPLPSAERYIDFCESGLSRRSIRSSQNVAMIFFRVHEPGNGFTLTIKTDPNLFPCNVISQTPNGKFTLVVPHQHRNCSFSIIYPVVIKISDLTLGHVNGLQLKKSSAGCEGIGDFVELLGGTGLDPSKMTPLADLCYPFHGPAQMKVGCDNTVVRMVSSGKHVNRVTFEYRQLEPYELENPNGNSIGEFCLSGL

[3] = blockers of CRF-binding protein–CRF-R2 complex – cell-based, uHTS hits, 384-well, dose response (AID 651639); format: functional, Homo sapiens; details: read-out: IC50_Mean
[4] = target: T1, Corticotropin-releasing factor receptor 2/Corticotropin-releasing factor-binding protein; assay: Dose Response confirmation of uHTS hits for small molecule antagonists of the CRF-binding protein and CRF-R2 receptor complex.; format: functional; details: read-out: IC50_Mean
[5] = target: T2, Mannose-6-phosphate isomerase (Homo sapiens, UniProt P34949); assay: MPI inhibition at elevated mannose 6-phosphate – biochemical, fluorescence intensity, high mannose 6-phosphate, primary screen (AID 1220)
T2 sequence (P34949 whole entry): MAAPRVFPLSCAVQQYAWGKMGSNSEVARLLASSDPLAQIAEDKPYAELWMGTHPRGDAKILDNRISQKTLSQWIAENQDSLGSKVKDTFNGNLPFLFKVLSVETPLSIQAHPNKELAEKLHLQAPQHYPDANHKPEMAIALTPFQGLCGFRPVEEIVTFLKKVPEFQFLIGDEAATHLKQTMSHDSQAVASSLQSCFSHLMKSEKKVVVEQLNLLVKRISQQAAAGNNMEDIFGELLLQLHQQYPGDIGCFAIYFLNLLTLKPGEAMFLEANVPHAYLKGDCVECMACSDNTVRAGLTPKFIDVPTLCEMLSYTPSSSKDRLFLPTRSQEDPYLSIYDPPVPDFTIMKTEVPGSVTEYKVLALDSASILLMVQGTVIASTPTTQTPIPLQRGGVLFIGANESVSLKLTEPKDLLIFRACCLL

[6] = target: T3, Endoribonuclease toxin MazF (Escherichia coli K-12, UniProt P0AE70); assay: substrate-only fluorescence increase artefacts – biochemical, single-stranded RNase substrate, counter-screen for MazEF activator project, dose response (AID 588502); format: functional
T3 sequence (P0AE70 whole entry): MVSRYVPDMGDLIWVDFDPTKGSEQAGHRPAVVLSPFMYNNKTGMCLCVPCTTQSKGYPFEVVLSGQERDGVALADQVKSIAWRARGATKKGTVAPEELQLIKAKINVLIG

[7] = target: T3, Endoribonuclease toxin MazF; assay: activation of MazEF endoribonuclease cleavage – biochemical, fluorescence, single-stranded RNA substrate, uHTS hits, dose response (AID 588481); format: functional
[8] = OVCAR-3 cell viability loss – plate reader, dry powder samples, PAX8 inhibitor project, dose response (AID 743044); format: functional, cell-based
Paired box protein Pax-8 = Paired box protein Pax-8 (Homo sapiens, UniProt Q06710); assay: PAX8 transcriptional activity inhibition in RMG-I – RMG-I cells, luciferase, cherry-pick, dose response (AID 687027); format: functional, cell-based;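 further: luciferase reporter driven by Pax8 target thyroperoxidase promoter measured by SteadyGlo luminescence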
[9] = OVCAR8 cell viability loss – plate reader, dry powder samples, PAX8 project, dose response (AID 743197); format: functional, cell-based; details: OVCAR-8
Kallikrein-7 = Kallikrein-7 (Homo sapiens, UniProt P49862); assay: Fluorescence Intensity-based biochemical primary high throughput dose response assay to identify activators of kallikrein-7 (K7) zymogen.
[10] = target: Eukaryotic translation initiation factor 4E (Mus musculus, UniProt P63073); assay: blockers of eIF4G binding by eIF4E – biochemical, TR-FRET, dose response (AID 855); format: functional;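 further: potency for disrupting eIF4E binding to eIF4GI seen as loss of FRET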
[11] = HPDE-C7 pancreatic duct cell viability loss – fluorescence, HTS (AID 430); format: functional, cell-based; details: Homo sapiens
[12] = viability loss of HPDE-C7K cells – cell-based, fluorescence, HTS, primary screen (AID 431); format: functional; details: Homo sapiens
[13] = viability of HCT116 lacking mutant beta-catenin – cell-based, human colon tumor, dose response (AID 1045); format: functional;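 further: HCT116 colon tumor cells with beta catenin knocked out; cells exposed to compound for 60 hours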
[14] = Luminescence Cell-Based Dose Retest to Confirm Inhibitors of Cancer Stem Cells. [Related pubchem assays (depositor defined):AID2717, AID2721]; format: functional; details: Homo sapiens
[15] = blockers of HIV-1 ZM109 envelope-driven cell-cell fusion – HeLa effector, CEM target cells, luciferase, cherry-pick, dose response (AID 652058); format: functional, cell-based;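 further: luciferase signal from HIV-1 Env mediated cell-cell fusion of effector and target cells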
[16] = microbe, parasite or virus in culture; format: functional; details: Mycobacterium tuberculosis
[17] = viability of PTEN-deleted HCT116 cells – cell-based, HCT116 PTEN knockout, dose response (AID 1047); format: functional;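 further: HCT116 colon tumor cells with PTEN knocked out; cells exposed to compound for 60 hours before readout; potency for loss of cell viability measured by luminescence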
[18] = viability loss in CEM21 cells – cell-based, CellTiter-Glo luminescence, cherry-picked, cytotoxicity control for viral fusion inhibitor project, dose response (AID 652042); format: functional;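 further: potency for signal decrease meaning cytotoxicity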
[19] = Luminescence Cell-Based Dose Response HTS to Identify Inhibitors of 5'UTR Stem-Loop Driven Prion Protein mRNA Translation in H4 Neuroglioblastoma Cells. [Related pubchem assays: 1827 (Project Summary), 1813 (Primary HTS)]; format: functional
[20] = HIV-1 AD8 envelope cell-cell fusion blockers – cherry-pick, dose response (AID 652062); format: functional, cell-based;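 further: luciferase signal from cell-cell fusion driven by HIV-1 clade B AD8 Env; potency is for inhibitors of fusion seen as a drop in luminescence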
[21] = blockers of HIV-1 envelope-mediated cell-cell fusion – cherry-pick, dose response (AID 652057); format: functional, cell-based
[22] = reduced cellular PGC1a acetyl-lysine signal – cell-based, cherry-picked samples, dose response (AID 720514); format: functional;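 further: potency may reflect raised or lowered acetylation signal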
[23] = reduction of Shn3 3'UTR-driven luciferase in osteoblasts – cell-based, Clone20 osteoblasts, firefly luciferase, cherry-picked, dose response (AID 624132); format: functional;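 further: firefly luciferase luminescence from reporter carrying the Shn3 3'UTR in osteoblasts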
[24] = loss of viability in HepG2 cells – cell-based, CellTiter-Glo, cherry-picked, cytotoxicity control for Shn3 inhibitor project, dose response (AID 624134); format: functional
[25] = non-specific 3'UTR reporter inhibition in Clone20-Shn3RL – cell-based, Renilla luciferase, cherry-picked, counter-screen for Shn3 inhibitor project, dose response (AID 624133); format: functional
[26] = target: T4, Hepatocyte nuclear factor 4-alpha (Homo sapiens, UniProt P41235); format: functional, cell-based;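 further: biochemical luminescence-based dose-response counterscreen measuring inhibition of HNF4 dimerization, run alongside a screen for blockers of ABHD5–perilipin-5 interaction; split luciferase complementation of HNF4 fusion proteins in cell lysate measuring dimerization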
T4 sequence (P41235 whole entry): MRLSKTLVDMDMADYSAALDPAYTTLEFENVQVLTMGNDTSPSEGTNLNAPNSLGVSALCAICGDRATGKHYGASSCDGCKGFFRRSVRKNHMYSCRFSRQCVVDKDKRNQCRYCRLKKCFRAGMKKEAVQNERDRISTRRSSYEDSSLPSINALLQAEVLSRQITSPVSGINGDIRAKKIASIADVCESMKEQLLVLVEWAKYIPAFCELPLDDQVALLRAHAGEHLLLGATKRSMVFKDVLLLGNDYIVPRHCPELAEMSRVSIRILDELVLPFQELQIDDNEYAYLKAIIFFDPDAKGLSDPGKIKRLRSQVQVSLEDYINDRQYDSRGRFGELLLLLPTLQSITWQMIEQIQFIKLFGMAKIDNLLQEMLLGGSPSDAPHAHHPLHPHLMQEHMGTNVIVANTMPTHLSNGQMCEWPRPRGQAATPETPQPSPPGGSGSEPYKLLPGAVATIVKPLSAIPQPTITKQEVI

[27] = THP-1 cell cytotoxicity, dose response, cytotoxicity control for non-replicating M. tuberculosis project (AID 489025); format: functional
cells = format: functional
[28] = target: FAD-linked sulfhydryl oxidase ALR (Homo sapiens, UniProt P55789); assay: ALR-catalysed DTT oxidation blockers – biochemical, H2O2 detection, luminescence, cherry-pick, dose response (AID 493248)
Large T antigen = Large T antigen (Simian virus 40, UniProt P03070); format: functional, Betapolyomavirus macacae;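 further: Confirmatory-stage PubChem screen for compounds that inhibit SV40 T antigen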
Protein Tat = target: T5, Protein Tat (Human immunodeficiency virus type 1 group M subtype B (isolate HXB2)(HIV-1), UniProt P04608); format: functional;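 further: tat binding to TAR RNA read out by fluorescence polarization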
T5 sequence (P04608 whole entry): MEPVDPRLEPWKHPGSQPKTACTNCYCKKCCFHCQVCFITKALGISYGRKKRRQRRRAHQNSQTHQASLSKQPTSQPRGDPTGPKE

[29] = off-target signal loss in HeLa-CEM21 co-culture – HeLa F-luc CTL cells, cherry-picked, counter-screen for HIV-1 Env fusion inhibitor project, dose response (AID 652040); format: functional, cell-based;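 further: potency for signal decrease marking cytotoxic or nonspecific inhibition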

Chain of Beta-galactosidase (Q8VNN2 whole entry): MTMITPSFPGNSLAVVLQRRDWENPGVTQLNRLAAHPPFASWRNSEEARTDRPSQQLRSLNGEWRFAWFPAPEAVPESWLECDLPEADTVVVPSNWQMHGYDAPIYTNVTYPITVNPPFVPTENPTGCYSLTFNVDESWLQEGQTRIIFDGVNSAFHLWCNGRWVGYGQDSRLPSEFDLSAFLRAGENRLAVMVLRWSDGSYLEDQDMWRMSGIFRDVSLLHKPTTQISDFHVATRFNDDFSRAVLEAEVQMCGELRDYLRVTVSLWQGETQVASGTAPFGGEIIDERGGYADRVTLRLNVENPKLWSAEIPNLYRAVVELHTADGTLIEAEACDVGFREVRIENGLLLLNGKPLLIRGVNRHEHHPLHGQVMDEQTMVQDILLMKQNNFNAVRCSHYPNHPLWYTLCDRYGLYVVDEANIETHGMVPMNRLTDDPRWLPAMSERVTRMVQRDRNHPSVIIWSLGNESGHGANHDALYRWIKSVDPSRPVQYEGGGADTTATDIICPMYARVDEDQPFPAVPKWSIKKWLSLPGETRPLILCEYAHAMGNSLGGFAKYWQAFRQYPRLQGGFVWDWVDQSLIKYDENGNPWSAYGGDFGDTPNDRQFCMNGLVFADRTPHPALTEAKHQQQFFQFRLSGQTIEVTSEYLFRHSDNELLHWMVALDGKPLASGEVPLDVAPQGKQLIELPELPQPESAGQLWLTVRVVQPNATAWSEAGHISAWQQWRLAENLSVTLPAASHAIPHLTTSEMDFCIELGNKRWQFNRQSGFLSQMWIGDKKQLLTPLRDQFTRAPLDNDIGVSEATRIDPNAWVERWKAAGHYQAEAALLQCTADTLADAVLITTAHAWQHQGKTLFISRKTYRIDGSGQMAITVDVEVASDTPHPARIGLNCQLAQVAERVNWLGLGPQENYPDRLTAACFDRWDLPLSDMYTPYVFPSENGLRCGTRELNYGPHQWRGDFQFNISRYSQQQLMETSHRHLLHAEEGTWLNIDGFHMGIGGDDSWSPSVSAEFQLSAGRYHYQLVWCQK
Chain of Kallikrein-7 (P49862 whole entry): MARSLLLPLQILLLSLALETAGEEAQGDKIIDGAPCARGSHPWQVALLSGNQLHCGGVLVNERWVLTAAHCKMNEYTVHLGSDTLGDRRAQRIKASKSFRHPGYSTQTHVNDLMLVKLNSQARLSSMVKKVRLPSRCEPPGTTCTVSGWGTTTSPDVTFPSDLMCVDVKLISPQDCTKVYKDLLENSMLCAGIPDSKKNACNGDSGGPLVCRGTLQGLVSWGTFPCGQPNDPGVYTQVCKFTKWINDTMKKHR
Chain of Paired box protein Pax-8 (Q06710 whole entry): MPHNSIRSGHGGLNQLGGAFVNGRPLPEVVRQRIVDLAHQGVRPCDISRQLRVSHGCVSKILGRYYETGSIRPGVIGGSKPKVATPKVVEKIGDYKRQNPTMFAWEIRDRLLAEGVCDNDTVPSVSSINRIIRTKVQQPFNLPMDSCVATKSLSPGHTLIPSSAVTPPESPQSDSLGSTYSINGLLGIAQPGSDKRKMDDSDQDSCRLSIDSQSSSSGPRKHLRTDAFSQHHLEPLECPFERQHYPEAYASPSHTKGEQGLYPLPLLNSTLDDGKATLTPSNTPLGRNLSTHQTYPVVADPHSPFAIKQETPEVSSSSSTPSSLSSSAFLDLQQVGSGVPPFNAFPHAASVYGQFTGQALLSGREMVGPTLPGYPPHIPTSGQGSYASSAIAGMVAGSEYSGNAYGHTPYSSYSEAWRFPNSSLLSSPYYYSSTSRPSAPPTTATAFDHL
Chain of Eukaryotic translation initiation factor 4E (P63073 whole entry): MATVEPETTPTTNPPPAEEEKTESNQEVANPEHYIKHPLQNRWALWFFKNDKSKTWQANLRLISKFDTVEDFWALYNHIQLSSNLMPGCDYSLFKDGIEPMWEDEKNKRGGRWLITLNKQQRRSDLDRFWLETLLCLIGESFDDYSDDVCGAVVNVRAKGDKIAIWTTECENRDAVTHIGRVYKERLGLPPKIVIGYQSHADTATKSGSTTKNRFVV
Chain of Large T antigen (P03070 whole entry): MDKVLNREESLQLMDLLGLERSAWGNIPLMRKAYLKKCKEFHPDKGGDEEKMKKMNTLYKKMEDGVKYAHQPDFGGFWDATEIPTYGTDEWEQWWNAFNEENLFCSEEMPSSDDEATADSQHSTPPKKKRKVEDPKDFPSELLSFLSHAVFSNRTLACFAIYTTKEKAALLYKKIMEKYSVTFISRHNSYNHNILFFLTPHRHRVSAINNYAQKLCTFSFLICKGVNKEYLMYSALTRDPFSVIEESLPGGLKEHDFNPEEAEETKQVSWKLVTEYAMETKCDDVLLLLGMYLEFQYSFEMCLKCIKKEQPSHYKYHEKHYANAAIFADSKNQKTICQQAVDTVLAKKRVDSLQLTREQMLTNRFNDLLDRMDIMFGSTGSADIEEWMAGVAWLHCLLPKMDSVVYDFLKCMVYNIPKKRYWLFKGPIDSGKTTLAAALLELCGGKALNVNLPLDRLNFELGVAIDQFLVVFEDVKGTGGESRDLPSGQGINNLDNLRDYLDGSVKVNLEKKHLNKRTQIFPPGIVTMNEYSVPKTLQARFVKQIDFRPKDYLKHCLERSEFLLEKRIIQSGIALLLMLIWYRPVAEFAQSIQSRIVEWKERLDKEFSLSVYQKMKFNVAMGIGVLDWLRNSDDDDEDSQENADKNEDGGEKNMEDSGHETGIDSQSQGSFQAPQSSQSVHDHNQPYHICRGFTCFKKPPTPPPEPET
Chain of FAD-linked sulfhydryl oxidase ALR (P55789 whole entry): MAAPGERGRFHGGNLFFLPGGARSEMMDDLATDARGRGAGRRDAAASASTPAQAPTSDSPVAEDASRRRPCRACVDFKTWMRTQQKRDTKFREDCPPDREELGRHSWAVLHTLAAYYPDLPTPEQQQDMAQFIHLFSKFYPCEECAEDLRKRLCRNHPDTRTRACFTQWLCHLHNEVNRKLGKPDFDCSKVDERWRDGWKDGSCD

CCOC(=O)N1CCN(C(=O)CSc2ccc(Cl)cc2)CC1
IC50 (Beta-galactosidase): > 80 µM (inactive)

COc1ccc(S(=O)(=O)Nc2ccc3c(c2)OCO3)cc1C
IC50 [1]: > 100 µM (active)

O=C(Nc1cccc(F)c1)c1coc(=O)c(Br)c1
EC50 [2]: > 53 µM (inactive)
IC50 [3]: 12.4 µM (active)
IC50 [4]: 9.89 µM (active)

Oc1nc2cc(/N=C/c3c(O)ccc4cc(Br)ccc34)ccc2[nH]1
IC50 [5]: > 50 µM (not active)
EC50 [6]: 5.48 µM (active)
EC50 [7]: > 99 µM (inactive)

C[C@@H]1CCCCO[C@H](CN(C)CC2CCCCC2)[C@H](C)CN([C@@H](C)CO)C(=O)c2cc(NC(=O)Nc3ccccc3)ccc2O1
AC50 [8]: 57 µM (active)
AC50 (Paired box protein Pax-8): 10.9 µM (active)
AC50 [9]: 61 µM (active)

CCOC(=O)N1CCN(C(=O)COc2ccc3c(c2)C(=O)CC(C)(C)O3)CC1
EC50 (Kallikrein-7): > 69.5 µM (inactive)

CN(C)S(=O)(=O)[n+]1ccn(C)c1.c1ccc([B-](c2ccccc2)(c2ccccc2)c2ccccc2)cc1
IC50 [10]: 15.7 µM (active)
EC50 [11]: 2.68 µM (active)
EC50 [12]: 1.77 µM (active)

Fc1ccc(/N=c2\ssnc2Cl)c(F)c1
IC50 [10]: 38.5 µM (inactive)
IC50 [5]: 25.3 µM (active)

COc1ccc2c(C)nc(Nc3nc(C)c(C)c(O)n3)nc2c1
EC50 [13]: 4.69 µM (active)
AC50 [14]: 6.84 µM (active)
AC50 [15]: 2.84 µM (active)
CC50 [16]: 7.44 µM (active)
EC50 [17]: 5.4 µM (active)
AC50 [18]: 7.32 µM (active)
EC50 [19]: > 120 µM (not active)
AC50 [20]: 8.79 µM (active)
AC50 [21]: 10.3 µM (active)

CC(C)N(C)c1ncnc2c1ncn2[C@H]1CN(Cc2ccc(Cl)cc2)C[C@@H](CO)O1
IC50 (Beta-galactosidase): > 80 µM (inactive)

O=S(=O)(c1ccc(-c2cn3ccccc3n2)cc1)N1CCOCC1
EC50 (Kallikrein-7): > 69.5 µM (inactive)

C#CCN(C[C@@H]1[C@@H](OC(=O)NC2CCCC2)[C@@H](OC(=O)NC2CCCC2)Cn2c(=O)ccc(=O)n21)S(=O)(=O)c1ccc(C)cc1
AC50 [22]: 3.87 µM (active)
AC50 (Paired box protein Pax-8): 6.12 µM (active)
AC50 [23]: 12.9 µM (active)
AC50 [24]: 23.1 µM (active)
AC50 [25]: 14.4 µM (active)
IC50 [26]: 16.5 µM (inactive)

CC(CN1CCOCC1)OC(=O)c1ccc(Br)cc1 (centres undefined)
EC50 [11]: 6.73 µM (active)
CC50 [27]: 38.2 µM (active)
EC50 [12]: 9.11 µM (active)
IC50 (cells): 5.68 µM (active)

Cc1cc([N+](=O)[O-])ccc1NCc1ccc2c(c1)OCCO2
EC50 [2]: > 53 µM (inactive)
IC50 [3]: 19.9 µM (active)
IC50 [4]: 30.1 µM (active)

Cc1c(NS(=O)(=O)c2ccccc2)ccc([N+](=O)[O-])c1Cl
EC50 [2]: > 53 µM (inactive)
IC50 [3]: 13.2 µM (active)
IC50 [4]: 3.86 µM (active)

CCOc1ccc(N(CC(=O)NCCOc2ccc(C)cc2)S(=O)(=O)c2ccccc2)cc1
IC50 (Beta-galactosidase): > 80 µM (inactive)

O=C1CC(N2CCN(c3ccc(O)cc3)CC2)C(=O)N1Cc1cccs1 (centres undefined)
AC50 [28]: 0.123 µM (active)
EC50 [11]: 6.78 µM (active)
EC50 [12]: 12 µM (active)
IC50 (Large T antigen): 5.41 µM (active)

CCOC(=O)c1ccc(NC(=O)CSCc2ccco2)cc1
IC50 [1]: > 73.7 µM (active)
IC50 (Protein Tat): 81.6 µM (inconclusive)

COc1cc(C(=O)O[C@H]2CC(C)=CC[C@@]3(C)CC[C@@](O)(C(C)C)[C@H]23)ccc1O [TEFERIN]
AC50 [15]: 1.64 µM (active)
AC50 [29]: 2.35 µM (active)
AC50 [18]: 35.6 µM (active)
AC50 [20]: 4.06 µM (active)
AC50 [21]: 1.19 µM (active)

COC(=O)C1=C(C)NC(=O)/C1=C\c1cccs1
IC50 [1]: > 100 µM (active)
IC50 (Protein Tat): > 100 µM (active)

O=C(Nc1ccc(NC(=O)c2ccccc2O)cc1)Nc1ccc(F)cc1F
EC50 (Kallikrein-7): 9.78 µM (active)
